Data published in PMC9421655, “Novel Antagonist of the Type 2 Lysophosphatidic Acid Receptor (LPA2), UCM-14216, Ameliorates Spinal Cord Injury in Mice” (Journal of Medicinal Chemistry, 2022).
Read-outs that look alike come from different tables or passages of the source.

Columns and labels:
LPA1 [1] = biological target: T1, LPA1 (Homo sapiens, UniProt Q92633); assay: cell-based; set-up: Emax: dose or concentration left out as unconfirmed
Method: (§1) Cells stably expressing the corresponding LPA1–3 receptor were grown as described previously.[18] Changes in intracellular calcium levels were measured by using the fluorescent calcium sensitive dye Fluo-4 NW (Invitrogen). RH7777 cells or B103 cells were plated on poly-D-lysine or collagen coated, respectively, black-wall clear-bottom 96-well plates (Corning) at a density of 50 000 cells/well and cultured overnight. The culture medium was then replaced with 100 μL of Fluo-4 NW dye loading solution containing 2.5 μM of probenecid and incubated for 30 min at 37 °C followed by an additional 30 min at rt. […] Fluorescence changes were registered in a FluoStar Optima instrument (BMG Labtech) at 525 nm using an excitation wavelength of 494 nm. […] The data presented are from two to four independent experiments carried out in triplicate or quadruplicate. Dose–response curves were generated and IC50 values calculated by nonlinear regression analysis using Prism software version 5 (GraphPad Software Inc., San Diego, CA, USA).

LPA3 [2] = biological target: T2, LPA3 (Homo sapiens, UniProt Q9UBY5); assay: cell-based
T2 sequence (Q9UBY5 1-353): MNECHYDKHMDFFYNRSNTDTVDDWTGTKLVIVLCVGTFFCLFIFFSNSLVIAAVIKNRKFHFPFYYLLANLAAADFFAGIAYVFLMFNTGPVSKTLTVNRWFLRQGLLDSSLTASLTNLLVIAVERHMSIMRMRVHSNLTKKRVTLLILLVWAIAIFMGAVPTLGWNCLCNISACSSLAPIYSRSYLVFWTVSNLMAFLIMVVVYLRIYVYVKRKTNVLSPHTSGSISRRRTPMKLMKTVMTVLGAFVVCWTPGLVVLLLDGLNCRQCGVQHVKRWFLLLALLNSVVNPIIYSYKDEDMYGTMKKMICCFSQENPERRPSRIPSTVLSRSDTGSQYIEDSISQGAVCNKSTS
Method: as §1

LPA2 [3] = biological target: T3, LPA2 (Homo sapiens, UniProt Q9HBW0); details: cited from earlier work
T3 construct: expressed in transfected cells
T3 sequence (Q9HBW0 whole entry, species assumed): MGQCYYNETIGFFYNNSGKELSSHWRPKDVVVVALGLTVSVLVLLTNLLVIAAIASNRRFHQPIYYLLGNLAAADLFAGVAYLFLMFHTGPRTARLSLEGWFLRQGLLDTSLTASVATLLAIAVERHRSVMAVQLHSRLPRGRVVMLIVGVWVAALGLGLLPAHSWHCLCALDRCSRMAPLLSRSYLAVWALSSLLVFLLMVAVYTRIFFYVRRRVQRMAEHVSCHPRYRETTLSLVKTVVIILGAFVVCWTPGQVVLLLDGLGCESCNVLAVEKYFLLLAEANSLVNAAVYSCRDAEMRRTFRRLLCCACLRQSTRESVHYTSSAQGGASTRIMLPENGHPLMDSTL

LPA2 [4] = biological target: T3, LPA2; assay: Ca2+ mobilization assay, agonist activity at LPA2; format: cell-based; details: 10 μM compound
Method: The agonist activity at LPA2 receptors was determined at 10 μM concentration for all final compounds as previously described.[18]
Figure S1. Representative snapshots showing the lack of significant agonist activity of selected compounds. (A) 1; (B) 13; (C) 54; and (D) Ki16425. (E) Graphs show the agonist activity induced […]
stably expressing LPA2 receptor were plated on collagen-coated black-wall clear-bottom 96-well plates (Corning) at a density of 50000 cells/well and cultured overnight. The culture medium was then replaced with Fluo-4 NW dye loading solution containing 2.5 µM of probenecid and incubated […]
for 30 minutes at 37 °C followed by an additional 30 minutes at rt. Fluorescence changes were registered in a FluoStar Optima instrument (BMG Labtech) at 525 nm using an excitation wavelength of 494 nm. Each well was monitored for 240 s. 20 µL of the test compound from a 6x stock solution in assay buffer were added after 120 s of starting the measurement. Ca2+ transient increase was quantified by calculating the difference between maximum and baseline values for each […]
Graphs shown are representative of two to three independent experiments.

LPA1 [5] = biological target: T1, LPA1; set-up: expressed in transfected cells; details: cited from earlier work
LPA2 [6] = biological target: T3, LPA2; assay: Ca2+ mobilization assay, antagonist activity at LPA2; format: cell-based; details: for IC50: antagonism of 10 μM LPA, mean ± s.e.m.
Method: as §1
Figure S2. Dose response curves for compounds 13, 44, 53, 54, and 55. B103 cells stably expressing LPA2 receptor were incubated with different concentrations of the compound under study and […]
Curves were generated with PRISM software version 5 (GraphPad Software Inc, San Diego, CA, USA) using nonlinear regression analysis. Each data point corresponds to the mean±SEM of two to four independent experiments carried out in triplicate or quadruplicate.

LPA3 [7] = biological target: T2, LPA3; set-up: expressed in transfected cells; details: cited from earlier work
[8] = Metabolic stability in human liver microsomes; format: in vitro ADME; details: male, liver microsomes (pooled), 1 mg/mL protein, NADPH, 37 °C, read-out: stability (t1/2, min) HLMs
Method: (§2) Reactions were initiated by the addition of a suspension of mouse liver microsomes (MLMs) (male CD-1 mice pooled, Sigma-Aldrich) or human liver microsomes (HLMs) (male human pooled, Sigma-Aldrich), respectively, at a final protein concentration of 1 mg/mL. […] Aliquots of 100 μL were quenched at time zero and at seven points ranging to 2 h (MLM) or 4 h (HLM) by pouring into 100 μL of ice-cold acetonitrile. […] The relative disappearance of the compound under study over the course of the incubation was monitored by HPLC-MS using SIM mode. Concentrations were quantified by measuring the area under the peak ([M + H]^+) normalized with an internal standard and converted to the percentage of compound remaining, using the time zero peak area value as 100%. The natural logarithm of the remaining percentage versus time data for each compound was fit to a linear regression, and the slope was used to calculate the degradation half-life (t1/2).

[9] = Parallel artificial membrane permeability assay (PAMPA); format: in vitro ADME; details: PBS pH 7.4, 5 h, rt
Method: These studies were carried out as previously described with minor modifications.[41],[42] The assessment of the membrane permeability of synthesized compounds and propranolol and metoprolol as reference compounds was performed in a commercially available 96-well Corning Gentest precoated PAMPA plate system (Cultek S.L.U., Spain). Prior to use, the precoated PAMPA plate system was warmed to rt for 30 min and 300 μL of 200 μM solution of tested compound in 2% DMSO in PBS (pH 7.4) were added into wells in the receiver (donor) plate. Then, 200 μL of PBS were added into wells in the filter (acceptor) plate. The filter plate was placed on the receiver plate by slowly lowering the precoated PAMPA plate until it sits on the receiver plate. The assembly was incubated at rt for 5 h, and then buffer samples were collected carefully from each plate. The final concentrations of compound in both donor and acceptor wells were analyzed by HPLC-MS and quantification was estimated by using the peak area integration normalized with an internal standard. Permeability value of the compounds was calculated using the following formula: P (cm/s) = {−ln[1 – CA(t)/Ceq]}/[A(1/VD + 1/VA)t], where A = filter area (0.3 cm^2), VD = donor well volume (0.3 mL), VA = acceptor well volume (0.2 mL), t = incubation time (s), CA(t) = compound concentration (μM) in the acceptor well at time t, CD(t) = compound concentration (μM) in donor well at time t, and Ceq = [CD(t)VD + CA(t)VA]/(VD + VA). Assays were performed in duplicate, and the compound was tested in two different plates on different days.

[10] = Metabolic stability in mouse liver microsomes; format: in vitro ADME; details: male, CD-1, mouse, liver microsomes (pooled), 1 mg/mL protein, NADPH, 37 °C, read-out: stability (t1/2, min) MLMs
Method: as §2

[11] = maximum blockade of activation induced by 10 μM LPA (18:1) at 10 μM compound, N.E. = no effect at 10 μM

T1 sequence (Q92633 whole entry, species assumed): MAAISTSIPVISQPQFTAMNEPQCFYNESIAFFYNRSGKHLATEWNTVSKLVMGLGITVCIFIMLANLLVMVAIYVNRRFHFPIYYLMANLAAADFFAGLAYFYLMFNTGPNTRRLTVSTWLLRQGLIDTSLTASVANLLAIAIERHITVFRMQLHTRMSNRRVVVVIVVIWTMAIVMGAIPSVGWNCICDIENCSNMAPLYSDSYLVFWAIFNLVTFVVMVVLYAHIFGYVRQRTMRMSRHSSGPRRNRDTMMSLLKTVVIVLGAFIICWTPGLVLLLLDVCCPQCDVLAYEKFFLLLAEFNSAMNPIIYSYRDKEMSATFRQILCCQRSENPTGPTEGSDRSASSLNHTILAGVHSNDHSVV

SMILES | Emax (LPA1 [1]; read-out: Emax (%) LPA1) [%] | IC50 (LPA1 [1]; read-out: IC50 (μM) LPA1, antagonism of 10 μM LPA, mean ± s.e.m.) [µM] | Emax (LPA3 [2]; read-out: Emax (%) LPA3) [%] | IC50 (LPA3 [2]; read-out: IC50 (μM) LPA3, antagonism of 10 μM LPA, mean ± s.e.m.) [µM] | IC50 (LPA2 [3]) [nM] | agonist activity at LPA2 receptor (LPA2 [4]) | IC50 (LPA1 [5]) [nM] | Emax at 10 µM (LPA2 [6]) [%] | IC50 (LPA2 [6]) [µM] | IC50 (LPA3 [7]) [nM] | Emax (%) LPA1 (LPA1 [1]; [11]) | Emax (%) LPA3 (LPA3 [2]; [11]) | half-life at 5 μM [8] [min] | P (cm/s), permeability value ([9]; 200 μM) | Papp at 5 h, 200 μM ([9]; pH 7.4, PAMPA, read-out: P (cm/s), permeability value) [×10⁻⁶ cm/s] | half-life at 1 μM [10] [min] | melting point
Cc1noc(-c2ccc(CSCCC(=O)O)cc2)c1NC(=O)OC(C)c1ccccc1Cl (centres unmarked) [Ki16425, reference compound] | 97 ± 4 | 0.8 | 99 ± 3 | 1.6 | 6500 | lack | 340 | 92 ± 3 | 1.2 | 930 |  |  |  |  |  |  | 
Cc1[nH]nc(-c2ccc(OCC(=O)O)cc2O)c1Oc1ccc(Cl)cc1Cl [Compound 13, {4-[4-(2,4-Dichlorophenoxy)-5-methyl-1H-pyrazol-3-yl]-3-hydroxyphenoxy}acetic Acid] |  |  |  |  |  | lack |  | 84 ± 3 | 5.5 |  | N.E. and N.E. ^c | N.E. | ~60 | 0.1 × 10^–6 cm/s | 0.11 | ~16 | > 196 °C (dec.)
